Results taken from PMC5653977 (EMBO Molecular Medicine, 2017).
Where a name gives a salt, the structure may show the parent alone.

The compounds below were run on NRG1-ERBB4 signaling (assay: Nrg1-ERBB4-PIK3R1 split TEV co-culture compound screen of the NIH Clinical Collection). Settings: NIH Clinical Collection NCC-003 raw data; compounds ranked by Z-score; 'flagged' given instead of a Z-score.
Type: cell-based, human

| Structure (SMILES) | Z-SCORE |
| --- | --- |
| COc1cc([C@@H]2c3cc4c(cc3[C@@H](O[C@@H]3O[C@@H]5CO[C@@H](C)O[C@H]5[C@H](O)[C@H]3O)[C@H]3COC(=O)[C@H]23)OCO4)cc(OC)c1O [Etoposide] | -2.67 |
| CC(=O)[C@H]1CC[C@H]2[C@@H]3CCC4=CC(=O)CC[C@]4(C)[C@H]3CC[C@]12C [PROGESTERONE] | -1.2 |
| O=C([O-])C[C@H](O)C[C@H](O)/C=C/c1c(C2CC2)nc2ccccc2c1-c1ccc(F)cc1.O=C([O-])C[C@H](O)C[C@H](O)/C=C/c1c(C2CC2)nc2ccccc2c1-c1ccc(F)cc1.[Ca+2] [ITAVASTATIN Ca] | flagged |
| OCc1cccnc1 [3-PYRIDINEMETHANOL] | -1.1 |

Same assay, conditions: compound screen of the NIH Clinical Collection, sheet raw data NCC-003; compounds ranked by Z-score

| Structure (SMILES) | Z-SCORE |
| --- | --- |
| CN1C(C(=O)Nc2ccccn2)=C(O)c2ccccc2S1(=O)=O [Piroxicam] | 0.27 |
| CC(C)NCC(O)COc1ccc(COCCOC(C)C)cc1 (stereo not shown) [BISOPROLOL FUMARATE] | 0.59 |
| C=CC1=C(C(=O)O)N2C(=O)[C@@H](NC(=O)/C(=N\O)c3csc(N)n3)[C@H]2SC1 | 0.68 |
| CC(C(O)c1ccc(O)cc1)N1CCC(Cc2ccccc2)CC1 (stereo not shown) [Ifenprodil] | 1.07 |
| c1cncc([C@@H]2CCCN2)c1 [Nornicotine] | 0.27 |
| COc1ccc2[nH]cc(CCN)c2c1 [5-Methoxytryptamine] | 0.65 |
| C/C=C1\[C@H]2C=C(C)C[C@]1(N)c1ccc(=O)[nH]c1C2 [HUPERZINE A] | -0.3 |
| CO[C@H]1/C=C/O[C@@]2(C)Oc3c(C)c(O)c4c(O)c(c5c(nc6cc(C)ccn65)c4c3C2=O)NC(=O)/C(C)=C\C=C\[C@H](C)[C@H](O)[C@@H](C)[C@@H](O)[C@@H](C)[C@H](OC(C)=O)[C@@H]1C [RIFAXIMIN] | 0.05 |
| Clc1ccccc1C(c1ccccc1)(c1ccccc1)n1ccnc1 [CLOTRIMAZOLE] | -0.73 |
| O=C(O)COCCN1CCN([C@H](c2ccccc2)c2ccc(Cl)cc2)CC1 [LEVOCETIRIZINE] | 0.15 |
| O=C(O[C@@H]1Cc2c(O)cc(O)cc2O[C@@H]1c1cc(O)c(O)c(O)c1)c1cc(O)c(O)c(O)c1 [Epigallocatechin gallate] | 1.36 |
| Nc1nnc(-c2cccc(Cl)c2Cl)c(N)n1 [LAMOTRIGINE] | 0.3 |
| CO[C@H]1/C=C/O[C@@]2(C)Oc3c(C)c(O)c4c(c3C2=O)C2=NC3(CCN(CC(C)C)CC3)NC2=C(NC(=O)/C(C)=C\C=C\[C@H](C)[C@H](O)[C@@H](C)[C@@H](O)[C@@H](C)[C@H](OC(C)=O)[C@@H]1C)C4=O [Rifabutin, reference compound] | 0.07 |
| Nc1ccn([C@@H]2CS[C@H](CO)O2)c(=O)n1 [LAMIVUDINE, reference compound] | 0.14 |
| Cc1ccnc2c1NC(=O)c1cccnc1N2C1CC1 [Viramune] | 0.09 |
| COc1cccc(C2(O)CCCCC2CN(C)C)c1 (stereo not shown) [Tramadol] | -0.17 |
| CCC(=O)[N-]S(=O)(=O)c1ccc(-c2c(-c3ccccc3)noc2C)cc1.[Na+] [PARECOXIB Na] | -0.3 |
| Nc1nc2ccc(Cl)cc2c2nc(-c3ccco3)nn12 [CGS 15943, reference compound] | 6.59 |
| Cc1cn([C@H]2C=C[C@@H](CO)O2)c(=O)[nH]c1=O [STAVUDINE, reference compound] | 0.08 |
| CC(C)(C#N)c1cc(Cn2cncn2)cc(C(C)(C)C#N)c1 [ANASTROZOLE] | -0.16 |
| O=C(c1ccc(F)cc1)C1CCN(CCn2c(=S)[nH]c3ccccc3c2=O)CC1 [Altanserin] | 0.71 |
| C[C@@H]1CN(CCCn2c3ccccc3c3ccccc32)C[C@H](C)N1 [Rimcazole] | 0.6 |
| CN(C)CCC(c1ccc(Cl)cc1)c1ccccn1 (stereo not shown) [Chlorpheniramine] | -0.07 |
| CCCc1nc(C)c2c(=O)[nH]c(-c3cc(S(=O)(=O)N4CCN(CC)CC4)ccc3OCC)nn12.O=C(O)CC(O)(CC(=O)O)C(=O)O [Vardenafil citrate, reference compound] | 5.88 |
| COc1ccc(C(CN(C)C)C2(O)CCCCC2)cc1 (stereo not shown) [VENLAFAXINE HCl] | 0.54 |
| CC(C)Oc1ccc2c(=O)c(-c3ccccc3)coc2c1 [IPRIFLAVONE] | 1.41 |

Same assay, conditions: compounds at 10 μM, 24 h; PC12 split TEV assay cells co-cultured with Nrg1-expressing PC12 cells; analysed with cellHTS2

| Structure (SMILES) | Z-SCORE |
| --- | --- |
| COC(=O)C1=C(C)NC(C)=C(C(=O)OCCN(C)Cc2ccccc2)C1c1cccc([N+](=O)[O-])c1 (stereo not shown) [Cardene, reference compound] | -1.07 |
| C[C@]12C=CC(=O)C=C1CC[C@@H]1[C@@H]2C(=O)C[C@@]2(C)[C@H]1CC[C@]2(O)C(=O)CO [Prednisone, reference compound] | -0.15 |
| NS(=O)(=O)c1cc2c(cc1C(F)(F)F)NC(Cc1ccccc1)NS2(=O)=O (stereo not shown) [Bendrofluazide, reference compound] | 0.53 |
| NNCCc1ccccc1 [Phenelzine, reference compound] | -0.21 |
| CC(=O)CC(c1ccccc1)c1c(O)c2ccccc2oc1=O (stereo not shown) [WARFARIN SODIUM, reference compound] | -0.02 |
| CCCCNc1cc(C(=O)O)cc(S(N)(=O)=O)c1Oc1ccccc1 [BUMETANIDE, reference compound] | -0.03 |
| Clc1ccc(COC(Cn2ccnc2)c2ccc(Cl)cc2Cl)cc1 (stereo not shown) [Econazole Nitrate, reference compound] | -2.43 |
| COc1cc(Cc2cnc(N)nc2N)cc(OC)c1OC [Trimethoprim, reference compound] | 0.28 |
| CC(N)C12CC3CC(CC(C3)C1)C2 (stereo not shown) [Flumadine, reference compound] | -0.97 |
| CO[C@H]1/C=C/O[C@@]2(C)Oc3c(C)c(O)c4c(c3C2=O)C2=NC3(CCN(CC(C)C)CC3)NC2=C(NC(=O)/C(C)=C\C=C\[C@H](C)[C@H](O)[C@@H](C)[C@@H](O)[C@@H](C)[C@H](OC(C)=O)[C@@H]1C)C4=O [Rifabutin, reference compound] | -1.04 |
| CC[C@@H](CO)NCCN[C@@H](CC)CO [Ethambutol, reference compound] | -0.12 |
| Nc1ccn([C@@H]2CS[C@H](CO)O2)c(=O)n1 [LAMIVUDINE, reference compound] | 0.33 |
| CC(=O)Nc1nnc(S(N)(=O)=O)s1 [Acetazolamide, reference compound] | 0.2 |
| O=C(c1ccc(OCCN2CCCCC2)cc1)c1c(-c2ccc(O)cc2)sc2cc(O)ccc12 [Evista, reference compound] | 1.2 |
| Cc1cn([C@H]2C=C[C@@H](CO)O2)c(=O)[nH]c1=O [STAVUDINE, reference compound] | 0.2 |
| c1ccc2c(CC3=NCCN3)cccc2c1 [Albalon, reference compound] | -0.27 |
| CC(C)n1c(/C=C/C(O)CC(O)CC(=O)O)c(-c2ccc(F)cc2)c2ccccc21 (stereo not shown) [fluvastatin, reference compound] | flagged |
| C[C@H]1C[C@H]2[C@@H]3CCC4=CC(=O)C=C[C@]4(C)[C@@]3(F)[C@@H](O)C[C@]2(C)[C@@]1(O)C(=O)CO [Betamethasone, reference compound] | 3.82 |
| CN(C)CCC=C1c2ccccc2CCc2ccccc21.Cl [Annoyltin, reference compound] | 0.33 |
| CCCc1nc(C)c2c(=O)[nH]c(-c3cc(S(=O)(=O)N4CCN(CC)CC4)ccc3OCC)nn12.O=C(O)CC(O)(CC(=O)O)C(=O)O [Vardenafil citrate, reference compound] | 5.88 |
| CCN(CC)CCOC(=O)c1ccc(N)cc1 [Novocain, reference compound] | -0.44 |
| CC1=C(/C=C/C(C)=C/C=C/C(C)=C\C(=O)O)C(C)(C)CCC1 [Isotretinoin, reference compound] | -0.41 |
| COC1=CC(=O)C[C@@H](C)[C@]12Oc1c(Cl)c(OC)cc(OC)c1C2=O [Griseofulvin, reference compound] | 0.64 |
| CN(C)[C@@H]1C(O)=C(C(N)=O)C(=O)[C@@]2(O)C(O)=C3C(=O)c4c(O)ccc(Cl)c4[C@@H](O)[C@H]3C[C@@H]12 [Demeclocycline, reference compound] | 0.1 |
| CCCNCC(O)COc1ccccc1C(=O)CCc1ccccc1 (stereo not shown) [Rythmol, reference compound] | 0.2 |
